## CN1C(=O)C(Cc2ccccc2)N(C)C(=O)C1=Cc1c(C#N)ccc(F)c1F (stereo not shown) [Example 15, 2-[5-Benzyl-1,4-dimethyl-3,6-dioxopiperazin-2-ylidenemethyl]-3,4-difluoro-benzonitrile]
  melting point: 175 °C
